Here are results for one compound from US9718824B2, “Solid forms comprising 7-(6-(2-hydroxypropan-2-yl)pyridin-3-yl)-1-((trans)-4-methoxycyclohexyl)-3,4-dihydropyrazino[2,3-b]pyrazin-2(1H)-one, and a coformer, compositions and methods of use thereof” (Signal Pharmaceuticals, LLC, priority 2014, dated 2017).

The data set can be described thus: Physical stability under accelerated ageing conditions, re-analysis by XRPD and digital imaging. Format: physicochemical. Conditions: 40° C. and 75% RH, 48 hours. The protocol: AAC: Accelerated aging conditions (48 hours at 40° C. and 75% RH)
Physical stability of all samples was studied by exposing all solids to accelerated ageing conditions (40° C./75% RH for 48 hours) followed by re-analysis by XRPD and digital imaging. After exposure to accelerated ageing conditions, all solids were re-classified on the basis of their new XRPD patterns. The assignment of solid forms was primarily based on the XRPD analysis.
Subsequently, all solids were placed in a climate chamber at 40° C. and 75% RH for […] and again analyzed by XRPD and digital imaging.
Compound 1 free base was solid dosed in 1.8 mL scale experimental vials. The coformer was added at a ratio of 1:1.1 (Compound 1:coformer). The solvent and a stirring bar were added to the vials. […] After the solids were separated from the liquids, the solids were analyzed wet by XRPD and digital imaging. […] The solids obtained were then analyzed by XRPD and digital imaging. Subsequently, the solids were incubated in a climate chamber at 40° C. and 75% RH for 48 hours and again analyzed by XRPD and digital imaging.
In these experiments 4 coformers and 6 solvents were tested (see Table 10). […] All obtained solids were then analyzed by XRPD and digital imaging. Subsequently, the solids were placed in a climate chamber at 40° C. and 75% RH for 3 days after which they were analyzed by XRPD and digital imaging again. […]

Turning to `COC1CCC(N2C(=O)CNc3ncc(-c4ccc(C(C)(C)O)nc4)nc32)CC1.O=C(O)C=CC(=O)O` (stereo not shown) [Form 1], the “Physical stability at accelerated aging conditions (solid form by XRPD)” value was “stable”.
